US6303596A, “Use of taurolidine for treatment of leukemias” (priority 2000, dated 2001)

Columns and labels:
TNFα = test: LPS-induced TNFα expression/secretion by PBMC, ELISA; assay type: cell-based, human; conditions: taurolidine 100 μg/ml, 4 h
Method: FIG. 3A and FIG. 3B are graphs depicting taurolidine inhibition of LPS-induced alpha […] (TNFα) expression by monocytic cells as determined by assay procedures. FIG. 3A represents MM6 cells; FIG. 3B represents PBMC. The cells were induced with LPS (hatched bars: 100 ng/ml LPS in RPMI+10% BCS; solid bars: 10 ng/ml in AIM-V+0.01% BCS) in the presence of varying concentrations of taurolidine. After four hours, cell supernatants were collected for TNFα ELISA. Data are expressed as percent of TNFα levels measured in cell cultures treated with LPS alone (no taurolidine or vehicle). Experiments were performed with duplicate samples and were repeated at least three times. Values shown in FIG. 3A are from a representative experiment. Values shown in FIG. 3B are mean±SEM of three experiments.
Human peripheral blood mononuclear cells (PBMC) were isolated from heparinized blood by centrifugation using Histopaque as per manufacturer's instructions. The isolated PBMC were suspended in RPMI supplemented with 10% BCS and were used in experiments immediately thereafter. As determined by flow cytometry, PBMC were typically 11±2% monocytes and 80±13% lymphocytes, with the remaining cytometric events consistent in size with platelets and cell aggregates. […]

Lymphocytes = test: tissue or blood; assay type: cell-based, human; conditions: for induction of apoptosis in lymphocytes: whole blood
Method: (§1) FIGS. 15A, 15B, and 15C depict TUNEL analysis of PBMC treated with taurolidine in whole blood, for control cells, taurolidine-treated cells, and anisomycin-treated cells, respectively . Cells were incubated with 500 μg/ml taurolidine for 4 hours, resuspended in fresh medium, incubated for two hours further and processed for TUNEL analysis. Parallel samples were stained with FITC-conjugated anti-CD14 and PI as described herein. Ten thousand events were recorded per sample. TUNEL signal (x -axis) is a measure of DNA fragmentation, while FSC (y-axis) is related to cell size. TUNEL-negative lymphocytes are bounded by rectangle R 1, while TUNEL-negative monocytes (CD 14 positive cells) are bounded by rectangle R2. R3 bounds the TUNEL-positive population of cells. There were minimal numbers of PI-positive cells in 6 hour samples (see Table VI).
(§2) In the second method, DNA fragmentation was detected via TUNEL assay according to the manufacturer's instructions. With this methodology, 2×10^6 cells were fixed with 2% paraformaldehyde, permeabilized with 0.1% Triton X-100/0.1% citrate, incubated at 37° C. with terminal deoxynucleotidyl transferase and FITC-dUTP, rinsed and analyzed by flow cytometry. Enhanced FITC signal indicates apoptosis-specific DNA fragmentation. Gavriali, et al, "Identification of programmed cell death in situ via specific labeling of nuclear DNA fragmentation," J Cell Biol 119:493 (1992). Parallel aliquots of unfixed cells were treated with PI and FITC-conjugated anti-CD14 and analyzed by flow cytometry, in order to identify cells with permeable cell membranes (since PI binds to DNA but is excluded from cells with intact plasma membranes) and also to determine the cell-specificity of the apoptotic signal.
(§3) Taurolidine at 100 μg/ml induced apoptosis of approximately 75% of purified peripheral blood monocytes when these cells were incubated in culture medium. However, in order to more closely mimic the milieu of leukocytes in vivo, induction of apoptosis in PBMC by taurolidine was studied in whole blood (anticoagulated with heparin). As before, apoptosis was quantitated by measuring the loss of monocytes from a TUTNEL-negative (no DNA fragmentation), CD 14 positive population of cells which was concomitant with the appearance of a TUNEL-positive population of cells. Treatment of PBMC in whole blood resulted
(§4) in a shift of the taurolidine dose-response curve. […] As a positive control for induction of apoptosis, some cells were treated with anisomycin, a protein synthesis inhibitor known to induce apoptosis in monocytes.
(§5) ^a Analysis by flow cytometry after staining cells with PI and
(§6) processing for TUNEL. Data are mean ± SD of 2 experiments.
(§7) ^b Percent of cells present in the TUNEL-negative region in control

Monocytes = test: tissue or blood; assay type: cell-based, human
Method: as §1, §2, §3, §4, §5, §6, §7

ECV304 = test: subcellular-sized events by flow cytometry, ECV304; assay type: cell-based, human; conditions: ECV304, after taurolidine treatment
Method: Less than 0.1% of ECV304 or GM5387 cells were TUNEL-positive 6 hours after treatment with taurolidine or anisomycin (Table VIII). Therefore, neither of these agents induce rapid DNA fragmentation in these cell types. However, there was approximately a 70% increase in the number of subcellular-sized events recorded by flow cytometry after taurolidine treatment of these cells, indicating some effect of taurolidine on cell integrity. These cell fragments were not stained by propidium iodide, consistent with them being apoptotic bodies.

[1] = intravenous administration; cited from earlier work
[2] = Homo sapiens, Lymphocyte, 6 h, read-out: % TUNEL-negative
[3] = Homo sapiens, Monocyte, 6 h, read-out: % TUNEL-negative

Compound: O=S1(=O)CCN(CN2CCS(=O)(=O)NC2)CN1 [taurolidine, 4,4'-methylenebis(perhydro-1,2,4-thiadiazin 1,1-dioxide)]
- inhibition of LPS-induced TNFα secretion (TNFα): maximally inhibit TNFα secretion
- viability at 200 µg/mL (Lymphocytes; [2]): 92.7 ± 6%
- viability at 500 µg/mL (Lymphocytes; [2]): 91.8 ± 6.9%
- induction of apoptosis in lymphocytes (Lymphocytes): no evidence for a significant effect
- induction of apoptosis in lymphocytes (Lymphocytes; taurolidine up to 500 μg/ml): does not induce a significant amount of apoptosis
- viability at 200 µg/mL (Monocytes; [3]): 117 ± 11.2%
- viability at 500 µg/mL (Monocytes; [3]): 27.9 ± 12%
- cytotoxicity at 500 µg/mL (Monocytes; Homo sapiens, Monocyte, read-out: loss of TUNEL-negative monocytes): 70%
- induction of apoptosis in whole blood (Monocytes; up to 200 μg/ml taurolidine): did not induce significant apoptosis
- effective concentration in whole blood relative to culture medium (Monocytes; whole blood versus purified PBMC in culture medium): 5 times
- increase in the number of subcellular-sized events (ECV304): ~70%
- alterations in hematologic variables, including white cell count [1]: does not cause detectable alterations
